This note sets out measurements from PubChem BioAssay AID743352 (Broad Institute, 2014).

SMILES strings stand for the structures. Activity calls are given as the source filed them. How the calls were made is not given here. Some results are limits rather than exact numbers.

This test relates to M. tuberculosis BioA-TetON underexpression strain, growth inhibition. The test can be described thus: m tuberculosis bioa teton underexpression strain, growth inhibition, cell based, single point (AID 743352).
One may read the IC90 as the concentration needed for an effect of 90%. With `CN(C)C(=O)c1ccc(N2CCN(C(=O)c3ccc4c(c3)OCO4)CC2)cc1`, the IC90 is > 50 µM (inactive).
On to `COc1cccc(NC(=O)N2CC[C@@H]3[C@@H](CO)N(C)c4ccc(-c5cccc(F)c5)cc4[C@@H]32)c1`, for which the IC90 is > 50 µM (inactive).
With `CN1c2ccc(-c3cccc(F)c3)cc2[C@H]2[C@H](CCN2C(=O)Cc2ccccc2)[C@H]1CO`, the IC90 was > 50 µM (inactive).
With `CN1c2ccc(-c3ccc(F)cc3)cc2[C@H]2[C@H](CCN2C(=O)Nc2ccc(F)cc2)[C@H]1CO`, the IC90 was > 50 µM (inactive).
Consider `CN1c2ccc(-c3ccc(F)cc3)cc2[C@H]2[C@H](CCN2C(=O)Nc2cc(F)ccc2F)[C@H]1CO`, for which the IC90 was > 50 µM (inactive).
As for `CN1c2ccc(-c3ccc(F)cc3)cc2[C@H]2[C@H](CCN2C(=O)Cc2ccccn2)[C@H]1CO`, the IC90 was > 50 µM (inactive).
In the case of `CNS(=O)(=O)c1ccc(N2CCN(C(=O)c3ccc4c(c3)OCO4)CC2)cc1`, the IC90 is > 50 µM (inactive).
Regarding `CC(=O)c1ccc(N2CCN(C(=O)c3ccc4c(c3)OCO4)[C@H](C)C2)cc1`, the 90% effect concentration (IC90) is 17.3 µM.
Turning to `CC(=O)c1ccc(NCCNC(=O)c2ccc3c(c2)OCO3)cc1`, the IC90 is > 50 µM (inactive).
Turning to `COc1ccccc1C(=O)N1CCN(c2ccc(C(C)=O)cc2)CC1`, the IC90 is > 50 µM (inactive).
Under `CN1c2ccc(-c3cccc(F)c3)cc2[C@@H]2[C@@H](CCN2C(=O)c2ccc3c(c2)OCO3)[C@H]1CO` stands > 50 µM (inactive).
In the case of `CC(=O)c1ccc(N2CCN(C(=O)c3ccc4c(c3)OCO4)CC2)cc1` it was 22.2 µM; in that of `CCC(=O)N1CC[C@@H]2[C@@H](CO)N(C)c3ccc(-c4ccc(F)cc4)cc3[C@@H]21`, > 50 µM (inactive); in that of `CN1c2ccc(-c3cccc(F)c3)cc2[C@H]2[C@H](CCN2C(=O)c2ccc3c(c2)OCO3)[C@@H]1CO`, > 50 µM (inactive).
In the case of `CCCNC(=O)N1CC[C@@H]2[C@@H](CO)N(C)c3ccc(-c4ccc(F)cc4)cc3[C@@H]21` it was > 50 µM (inactive); in that of `CN1c2ccc(-c3cccc(F)c3)cc2[C@H]2[C@H](CCN2C(=O)CCCCCCN)[C@H]1CO`, > 50 µM (inactive); in that of `CC(C)NC(=O)N1CC[C@@H]2[C@@H](CO)N(C)c3ccc(-c4ccc(F)cc4)cc3[C@@H]21`, > 50 µM (inactive).
Consider `CNC(=O)c1ccc(N2CCN(C(=O)c3ccc4c(c3)OCO4)CC2)cc1`, for which the IC90 was > 50 µM (inactive).
For `CC(C)NC(=O)N1CC[C@@H]2[C@@H](CO)N(C)c3ccc(-c4cccc(F)c4)cc3[C@@H]21`, the IC90 was > 50 µM (inactive).
For `COc1ccc(NC(=O)N2CC[C@@H]3[C@@H](CO)N(C)c4ccc(-c5cccc(F)c5)cc4[C@@H]32)cc1`, the IC90 is > 50 µM (inactive).
Under `CN1c2ccc(-c3cccc(F)c3)cc2[C@H]2[C@H](CCN2C(=O)Nc2ccccc2F)[C@H]1CO` stands > 50 µM (inactive).
As to `COc1ccccc1NC(=O)N1CC[C@@H]2[C@@H](CO)N(C)c3ccc(-c4cccc(F)c4)cc3[C@@H]21`, the IC90 is > 50 µM (inactive).
Consider `CN1c2ccc(-c3cccc(F)c3)cc2[C@H]2[C@H](CCN2C(=O)Cc2cccnc2)[C@H]1CO`, for which the IC90 is > 50 µM (inactive).
In the case of `CN1c2ccc(-c3ccc(F)cc3)cc2[C@H]2[C@H](CCN2C(=O)Cc2cccnc2)[C@H]1CO`, the IC90 was > 50 µM (inactive).
With `CCCCCCCC(=O)N1CC[C@@H]2[C@@H](CO)N(C)c3ccc(-c4cccc(F)c4)cc3[C@@H]21`, the IC90 is > 50 µM (inactive).
As to `CN1c2ccc(-c3cccc(F)c3)cc2[C@H]2[C@H](CCN2C(=O)CCCCCCC(=O)O)[C@H]1CO`, the IC90 was > 50 µM (inactive).
For `CN1c2ccc(-c3cccc(F)c3)cc2[C@@H]2[C@@H](CCN2C(=O)c2ccc3c(c2)OCO3)[C@@H]1CO`, the IC90 is > 50 µM (inactive).
As to `COc1ccc(NC(=O)N2CC[C@@H]3[C@@H](CO)N(C)c4ccc(-c5ccc(F)cc5)cc4[C@@H]32)cc1`, the IC90 was > 50 µM (inactive).
As to `CC(=O)c1ccc(N2CC3(CN(C(=O)c4ccc5c(c4)OCO5)C3)C2)cc1`, the IC90 was > 50 µM (inactive).
In the case of `CC(=O)c1ccc(N2CCN(C(=O)c3ccccc3Cl)CC2)cc1`, the IC90 is > 50 µM (inactive).
Consider `COc1ccccc1NC(=O)N1CC[C@@H]2[C@@H](CO)N(C)c3ccc(-c4ccc(F)cc4)cc3[C@@H]21`, for which the IC90 is > 50 µM (inactive).
As for `COC(=O)CCCCCCC(=O)N1CC[C@@H]2[C@@H](CO)N(C)c3ccc(-c4cccc(F)c4)cc3[C@@H]21`, the IC90 is > 50 µM (inactive).
For the compound `COCC(=O)N1CC[C@@H]2[C@@H](CO)N(C)c3ccc(-c4cccc(F)c4)cc3[C@@H]21`, the IC90 is > 50 µM (inactive).
Take `CC(=O)c1ccc(N2CCN(C(=O)c3ccccc3F)CC2)cc1`: the IC90 is > 50 µM (inactive).
